Measured values from publication PMC9149120 (Cell, 2022).
One block for each compound: values may come before it. Peptide text beside a SMILES is read from it. * marks the point of attachment. Cbz = O=C(OCc1ccccc1)*; CH2F = FC*

Assays:
HT 22 cells = assay: TNF-α and Z-VAD-induced necroptosis, Alamar blue; assay type: cell-based; conditions: 1 ng/mL TNF-α with 50 μM z-VAD, n = 3; Figure S4G
SH-SY5Y cells [1] = assay: Staurosporine; assay type: cell-based; conditions: 0.5 μM STS, n = 3; Figure S4F
human cortical neurons = assay: Human α-syn PFF-induced cell death, Hoechst/PI staining; assay type: cell-based; conditions: 0.5 or 1 μM, pre-incubated 1 h, human α-syn PFF 14 days, n = 4; Figure 3G
[2] = test system: PC-3 prostate cancer cells; assay: Tumor cell viability alone or with alantolactone; assay type: cell-based; conditions: 0.5–8 μM combined with 10 μM ATL, 72 h, n = 3; Figure S5D
cortical neurons = assay: Nuclear translocation of AIF and PAAN/MIF after α-syn PFF; assay type: cell-based, mouse; conditions: n = 3
primary cortical neurons = assay: α-syn PFF-induced PARP activation; assay type: cell-based, mouse; conditions: AP5 50 μM or NBQX 10 μM pre-incubated 1 h, α-syn PFF 3 days, n = 3; Figure S3A
SH-SY5Y cells [3] = assay: MNNG-induced parthanatic cell death, Alamar blue viability; assay type: cell-based; conditions: for inhibition of MNNG-induced parthanatic cell death: 0.5 or 1 μM, 50 μM MNNG 15 min, n = 4, Figure S5I; for inhibition of parthanatic cell death by MIF tautomerase inhibitors: 10 μM p-425, 50 μM ISO-1, 10 μM AV411, 50 μM MNNG 15 min, n = 5, Figure 4J
PAAN/MIF nuclease = target: T1, PAAN/MIF nuclease (Homo sapiens, UniProt P14174); assay: In vitro PAAN/MIF nuclease assay; assay type: biochemical; conditions: for inhibition of PAAN/MIF nuclease activity: PS30 substrate, indicated doses, n = 4, Figure 4H; for inhibition of the nuclease activity of PAAN/MIF by MIF tautomerase inhibitors: 10 μM p-425, 50 μM ISO-1, 10 μM AV411, n = 5, Figure 4I
T1 sequence (P14174 1-115): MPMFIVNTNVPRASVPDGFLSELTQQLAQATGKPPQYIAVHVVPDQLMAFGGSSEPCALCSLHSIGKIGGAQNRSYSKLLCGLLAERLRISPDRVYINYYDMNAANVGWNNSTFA

Structure (SMILES): C[C@]1(c2nc3c(C(N)=O)cccc3[nH]2)CCCN1 [ABT-888]
- prevention of TNF-α and Z-VAD-induced necroptosis (HT 22 cells): not prevented
- inhibition of staurosporine (STS)-induced apoptotic cell death (SH-SY5Y cells [1]): did not inhibit
- protection against cell death (human cortical neurons): protected against cell death
- tumor toxicity induced by alantolactone (ATL) [2]: enhancement of tumor toxicity
- α-syn PFF-induced nuclear translocation of PAAN/MIF and AIF (cortical neurons; ABT-888 1 μM, Figure 2A): attenuated

Structure (SMILES): NC(CCCP(=O)(O)O)C(=O)O (centres unmarked) [AP5]
- nuclear translocation of AIF and MIF (cortical neurons; AP5 50 μM or NBQX 10 μM pretreatment, Figure S3B): attenuated
- α-syn PFF-induced PARP activation (primary cortical neurons): inhibited

- inhibition of PAAN/MIF nuclease activity (PAAN/MIF nuclease): failed to inhibit
Structure (SMILES): C=CC[C@@H]1/C=C(\C)C[C@H](C)C[C@H](OC)[C@H]2O[C@@](O)(C(=O)C(=O)N3CCCC[C@H]3C(=O)O[C@H](/C(C)=C/[C@@H]3CC[C@@H](O)[C@H](OC)C3)[C@H](C)[C@@H](O)CC1=O)[C@H](C)C[C@@H]2OC [FK506]
- inhibition of MNNG-induced parthanatic cell death (SH-SY5Y cells [3]): failed to inhibit

Structure (SMILES): COC(=O)CC1CC(c2ccc(O)cc2)=NO1 (centres unmarked) [ISO-1]
- inhibition of parthanatic cell death by MIF tautomerase inhibitors (SH-SY5Y cells [3]): failed to inhibit
- inhibition of the nuclease activity of PAAN/MIF by MIF tautomerase inhibitors (PAAN/MIF nuclease): failed to inhibit

- inhibition of the nuclease activity of PAAN/MIF by MIF tautomerase inhibitors (PAAN/MIF nuclease): failed to inhibit
Structure (SMILES): CC(C)C(=O)c1c(C(C)C)nn2ccccc12 [Ibudilast]
- inhibition of parthanatic cell death by MIF tautomerase inhibitors (SH-SY5Y cells [3]): failed to inhibit

Structure (SMILES): CN1C(=O)C(Cc2c[nH]c3ccccc23)NC1=S (centres unmarked) [Nec-1]
- prevention of TNF-α and Z-VAD-induced necroptosis (HT 22 cells): prevented necroptosis

Structure (SMILES): COC(=O)C[C@H](NC(=O)[C@H](C)NC(=O)[C@@H](NC(=O)OCc1ccccc1)C(C)C)C(=O)CF [Z-VAD] (Cbz-Val-Ala-Asp(OMe)-CH2F)
- inhibition of staurosporine (STS)-induced apoptotic cell death (SH-SY5Y cells [1]): prevented

- inhibition of PAAN/MIF nuclease activity (PAAN/MIF nuclease): failed to inhibit
Structure (SMILES): CO[C@H]1C[C@@H]2CC[C@@H](C)[C@@](O)(O2)C(=O)C(=O)N2CCCC[C@H]2C(=O)O[C@H]([C@H](C)C[C@@H]2CC[C@@H](O)[C@H](OC)C2)CC(=O)[C@H](C)/C=C(\C)[C@@H](O)[C@@H](OC)C(=O)[C@H](C)C[C@H](C)/C=C/C=C/C=C/1C [rapamycin]
- inhibition of MNNG-induced parthanatic cell death (SH-SY5Y cells [3]): failed to inhibit
